Laboratory results reported in ChEMBL document CHEMBL4270498, “Targeting Eph/ephrin system in cancer therapy” (Eur J Med Chem, 2017).
Each block holds one compound with its values, some of them ahead of it.

Legend:
Ephrin type-B receptor 4 = molecular target: T1, Ephrin type-B receptor 4 (Homo sapiens, UniProt P54760); experiment: Binding affinity to Fc-tagged EphB4 (unknown origin) assessed as reduction in ephrin-B2 binding by SPR assay
T1 sequence (P54760 whole entry): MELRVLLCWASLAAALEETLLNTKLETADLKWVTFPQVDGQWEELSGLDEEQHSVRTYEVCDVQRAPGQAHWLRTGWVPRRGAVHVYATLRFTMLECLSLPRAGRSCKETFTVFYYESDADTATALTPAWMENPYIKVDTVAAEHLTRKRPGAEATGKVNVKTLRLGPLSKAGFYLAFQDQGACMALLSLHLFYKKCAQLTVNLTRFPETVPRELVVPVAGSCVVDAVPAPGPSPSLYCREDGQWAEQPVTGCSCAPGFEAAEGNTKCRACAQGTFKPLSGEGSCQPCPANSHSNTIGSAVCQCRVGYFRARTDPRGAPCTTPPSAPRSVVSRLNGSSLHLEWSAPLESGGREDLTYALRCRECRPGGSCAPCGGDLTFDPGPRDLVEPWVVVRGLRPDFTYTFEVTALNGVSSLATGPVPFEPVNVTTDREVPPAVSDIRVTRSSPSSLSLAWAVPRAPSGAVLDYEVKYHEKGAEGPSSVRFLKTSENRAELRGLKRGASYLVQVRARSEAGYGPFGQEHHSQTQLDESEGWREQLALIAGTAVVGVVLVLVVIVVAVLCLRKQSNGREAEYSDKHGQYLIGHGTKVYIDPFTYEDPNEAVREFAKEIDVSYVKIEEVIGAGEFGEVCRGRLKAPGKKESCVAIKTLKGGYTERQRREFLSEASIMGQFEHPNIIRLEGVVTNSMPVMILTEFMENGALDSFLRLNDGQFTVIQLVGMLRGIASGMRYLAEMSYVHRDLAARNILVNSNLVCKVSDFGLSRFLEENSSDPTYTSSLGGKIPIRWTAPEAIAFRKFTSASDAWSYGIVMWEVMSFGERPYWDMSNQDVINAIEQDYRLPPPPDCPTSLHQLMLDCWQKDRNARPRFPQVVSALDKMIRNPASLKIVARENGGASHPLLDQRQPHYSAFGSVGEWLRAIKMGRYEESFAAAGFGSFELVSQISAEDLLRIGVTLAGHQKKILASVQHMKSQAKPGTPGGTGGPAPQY

[1] = Half life in mouse at 30 mg/kg, iv; type: ADME, organism-based; conditions: in vivo
Ephrin type-A receptor 2 [2] = molecular target: T2, Ephrin type-A receptor 2 (Mus musculus, UniProt Q03145); experiment: Binding affinity to histidine-tagged mouse EphA2 Fc fusion protein by SPR assay
T2 sequence (Q03145 whole entry, the tested form may be a part): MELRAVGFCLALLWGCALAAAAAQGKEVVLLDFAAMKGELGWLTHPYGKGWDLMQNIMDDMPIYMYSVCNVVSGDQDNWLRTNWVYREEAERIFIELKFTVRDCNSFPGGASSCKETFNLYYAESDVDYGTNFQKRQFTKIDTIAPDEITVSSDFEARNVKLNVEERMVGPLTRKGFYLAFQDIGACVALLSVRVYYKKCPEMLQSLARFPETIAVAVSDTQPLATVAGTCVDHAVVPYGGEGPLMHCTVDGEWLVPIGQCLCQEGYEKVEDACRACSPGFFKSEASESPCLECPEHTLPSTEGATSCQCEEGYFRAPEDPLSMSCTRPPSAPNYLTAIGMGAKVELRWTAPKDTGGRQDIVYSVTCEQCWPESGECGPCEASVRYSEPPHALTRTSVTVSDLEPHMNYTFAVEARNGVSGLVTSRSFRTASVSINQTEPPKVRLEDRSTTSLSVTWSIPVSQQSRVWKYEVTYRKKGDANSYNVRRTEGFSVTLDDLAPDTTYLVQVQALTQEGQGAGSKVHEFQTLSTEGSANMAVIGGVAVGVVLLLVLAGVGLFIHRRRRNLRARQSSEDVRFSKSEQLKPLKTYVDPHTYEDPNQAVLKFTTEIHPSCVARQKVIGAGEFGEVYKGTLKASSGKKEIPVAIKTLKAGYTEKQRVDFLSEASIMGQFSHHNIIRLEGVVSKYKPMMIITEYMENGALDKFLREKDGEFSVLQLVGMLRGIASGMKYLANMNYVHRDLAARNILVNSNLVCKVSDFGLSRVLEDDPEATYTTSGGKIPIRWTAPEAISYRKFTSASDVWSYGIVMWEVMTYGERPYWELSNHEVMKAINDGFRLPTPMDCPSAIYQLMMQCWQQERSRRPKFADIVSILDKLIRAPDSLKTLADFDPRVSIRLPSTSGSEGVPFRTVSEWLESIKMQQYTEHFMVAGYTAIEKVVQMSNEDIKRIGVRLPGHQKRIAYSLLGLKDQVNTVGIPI

Ephrin type-A receptor 2 [3] = molecular target: Ephrin type-A receptor 2 (Homo sapiens, UniProt P29317); experiment: Binding affinity to EphA2 (unknown origin)
Sequence of Ephrin type-A receptor 2 (Homo sapiens, UniProt P29317) (P29317 whole entry): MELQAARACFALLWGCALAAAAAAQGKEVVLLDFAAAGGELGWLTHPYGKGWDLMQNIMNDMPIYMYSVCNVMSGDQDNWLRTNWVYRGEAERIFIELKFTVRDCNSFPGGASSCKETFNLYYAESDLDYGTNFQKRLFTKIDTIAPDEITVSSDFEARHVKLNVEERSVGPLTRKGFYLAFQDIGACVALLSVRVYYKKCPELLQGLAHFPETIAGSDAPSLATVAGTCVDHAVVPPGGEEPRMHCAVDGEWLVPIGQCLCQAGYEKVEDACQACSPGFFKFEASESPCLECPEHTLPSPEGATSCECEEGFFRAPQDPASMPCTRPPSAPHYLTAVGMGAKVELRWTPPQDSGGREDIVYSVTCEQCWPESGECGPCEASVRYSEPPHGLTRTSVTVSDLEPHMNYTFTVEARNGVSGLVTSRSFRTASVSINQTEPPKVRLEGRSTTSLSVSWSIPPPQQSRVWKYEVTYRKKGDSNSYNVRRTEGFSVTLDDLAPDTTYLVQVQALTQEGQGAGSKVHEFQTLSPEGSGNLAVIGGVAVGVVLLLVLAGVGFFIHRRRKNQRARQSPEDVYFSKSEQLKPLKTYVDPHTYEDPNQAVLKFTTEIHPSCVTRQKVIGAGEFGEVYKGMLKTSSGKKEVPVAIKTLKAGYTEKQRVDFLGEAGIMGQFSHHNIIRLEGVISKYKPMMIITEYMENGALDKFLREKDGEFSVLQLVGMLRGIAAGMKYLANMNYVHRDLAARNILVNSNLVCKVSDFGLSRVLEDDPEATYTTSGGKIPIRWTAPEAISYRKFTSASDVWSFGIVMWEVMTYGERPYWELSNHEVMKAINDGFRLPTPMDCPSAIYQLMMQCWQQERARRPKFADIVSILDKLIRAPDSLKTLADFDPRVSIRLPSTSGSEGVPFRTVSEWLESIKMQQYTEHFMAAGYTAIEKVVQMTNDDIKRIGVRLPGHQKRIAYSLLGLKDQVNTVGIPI

Ephrin type-A receptor 2 [4] = molecular target: T2, Ephrin type-A receptor 2; experiment: Displacement of biotinylated ephrinA1-Fc from recombinant mouse EphA2 Fc chimera protein by ELISA

Compound: H-TNYLFSPNGPIARAW-OH
Kd (Ephrin type-B receptor 4): 2 nM

half-life [1]: > 2 h
Compound: CCCC[C@H](NC(=O)[C@@H]1CCCN1C(=O)[C@@H](NC(=O)[C@H](CO)NC(=O)[C@H](CC(=O)O)NC(=O)[C@@H]1CCCN1C(=O)[C@H](Cc1ccc(O)cc1)NC(=O)[C@H](C)NC(=O)[C@H](CO)NC(=O)COc1ccc(F)c(Cl)c1)C(C)C)C(=O)N[C@@H](CCO)C(=O)N[C@@H](CO)C(=O)N[C@@H](CCCCNC(=O)CCCc1cn(CCCCCOC(=O)COCC(=O)O[C@@H](C(=O)O[C@H]2C[C@@]3(O)[C@@H](OC(=O)c4ccccc4)[C@@H]4[C@]5(OC(C)=O)CO[C@@H]5C[C@H](O)[C@@]4(C)C(=O)[C@H](OC(C)=O)C(=C2C)C3(C)C)[C@@H](NC(=O)c2ccccc2)c2ccccc2)nn1)C(=O)O

Compound: CC(C)C[C@H](NC(=O)[C@H](Cc1c[nH]c2ccccc12)NC(=O)[C@@H](N)CO)C(=O)N[C@@H](C)C(=O)N[C@@H](Cc1ccc(O)cc1)C(=O)N1CCC[C@H]1C(=O)NCC(=O)N[C@@H](C)C(=O)N[C@H](C(=O)N[C@@H](CO)C(=O)N[C@@H](Cc1ccc(O)cc1)C(=O)N[C@@H](CCCN=C(N)N)C(=O)O)C(C)C
Kd (Ephrin type-A receptor 2 [2]): 700 nM

Ki (Ephrin type-A receptor 2 [3]): > 15000 nM
Compound: C[C@H](CCC(=O)N[C@H](CC(=O)O)Cc1c[nH]c2ccccc12)[C@H]1CC[C@H]2[C@@H]3CC[C@@H]4CCCC[C@]4(C)[C@H]3CC[C@]12C

IC50 (Ephrin type-A receptor 2 [4]): 57000 nM
Compound: C[C@H](CCC(=O)O)[C@H]1CC[C@H]2[C@@H]3CC[C@@H]4C[C@H](O)CC[C@]4(C)[C@H]3CC[C@]12C [LITHOCHOLIC ACID]
